Experiments:
Format in all cases: cell-based
[1] = molecular target: proteins of U3A human fibrosarcoma cells (4462 proteins detected) (Homo sapiens, UniProt Q13263); settings: protein TRIM28; U3A cells
[2] = molecular target: proteins of U3A human fibrosarcoma cells (4462 proteins detected) (Homo sapiens, UniProt Q7L2H7); settings: protein EIF3M; U3A cells
[3] = molecular target: proteins of U3A human fibrosarcoma cells (4462 proteins detected) (Homo sapiens, UniProt P30154); settings: protein PPP2R1B; soluble abundance after heat, U3A cells
[4] = molecular target: proteins of U3A human fibrosarcoma cells (4462 proteins detected) (Homo sapiens, UniProt O75151); settings: protein PHF2; soluble abundance after heat, U3A cells
[5] = molecular target: proteins of U3A human fibrosarcoma cells (4462 proteins detected) (Homo sapiens, UniProt O95059); settings: protein RPP14; soluble abundance after heat, U3A cells
[6] = molecular target: proteins of U3A human fibrosarcoma cells (4462 proteins detected) (Homo sapiens, UniProt P54802); settings: protein NAGLU, U3A cells
[7] = molecular target: proteins of U3A human fibrosarcoma cells (4462 proteins detected) (Homo sapiens, UniProt Q8TED0); settings: protein UTP15; U3A cells
[8] = molecular target: proteins of U3A human fibrosarcoma cells (4462 proteins detected) (Homo sapiens, UniProt Q9Y266); settings: protein NUDC; U3A cells
[9] = molecular target: proteins of U3A human fibrosarcoma cells (4462 proteins detected) (Homo sapiens, UniProt P46060); settings: protein RANGAP1; U3A cells
Chain of proteins of U3A human fibrosarcoma cells (4462 proteins detected) (Homo sapiens, UniProt P46060) (P46060 whole entry): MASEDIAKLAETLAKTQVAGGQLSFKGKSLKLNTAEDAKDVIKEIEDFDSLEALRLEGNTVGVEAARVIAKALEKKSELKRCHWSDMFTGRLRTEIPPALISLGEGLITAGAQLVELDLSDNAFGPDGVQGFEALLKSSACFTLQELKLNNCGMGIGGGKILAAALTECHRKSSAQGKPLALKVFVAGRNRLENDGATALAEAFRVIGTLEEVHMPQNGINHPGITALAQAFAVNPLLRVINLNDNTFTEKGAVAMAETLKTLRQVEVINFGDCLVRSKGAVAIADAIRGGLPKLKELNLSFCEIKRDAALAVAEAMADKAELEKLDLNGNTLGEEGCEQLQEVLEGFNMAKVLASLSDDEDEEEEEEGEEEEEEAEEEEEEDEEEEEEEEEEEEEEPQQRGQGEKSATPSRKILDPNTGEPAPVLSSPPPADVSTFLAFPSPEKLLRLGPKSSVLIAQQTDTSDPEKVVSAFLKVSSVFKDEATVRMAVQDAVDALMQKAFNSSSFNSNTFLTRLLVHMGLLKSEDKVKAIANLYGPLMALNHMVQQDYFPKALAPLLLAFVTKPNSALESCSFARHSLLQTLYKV

[10] = molecular target: proteins of U3A human fibrosarcoma cells (4462 proteins detected) (Homo sapiens, UniProt Q7L5Y9); settings: protein MAEA; U3A cells
[11] = molecular target: proteins of U3A human fibrosarcoma cells (4462 proteins detected) (Homo sapiens, UniProt P51648); settings: protein ALDH3A2; U3A cells
Chain of proteins of U3A human fibrosarcoma cells (4462 proteins detected) (Homo sapiens, UniProt P51648) (P51648 whole entry): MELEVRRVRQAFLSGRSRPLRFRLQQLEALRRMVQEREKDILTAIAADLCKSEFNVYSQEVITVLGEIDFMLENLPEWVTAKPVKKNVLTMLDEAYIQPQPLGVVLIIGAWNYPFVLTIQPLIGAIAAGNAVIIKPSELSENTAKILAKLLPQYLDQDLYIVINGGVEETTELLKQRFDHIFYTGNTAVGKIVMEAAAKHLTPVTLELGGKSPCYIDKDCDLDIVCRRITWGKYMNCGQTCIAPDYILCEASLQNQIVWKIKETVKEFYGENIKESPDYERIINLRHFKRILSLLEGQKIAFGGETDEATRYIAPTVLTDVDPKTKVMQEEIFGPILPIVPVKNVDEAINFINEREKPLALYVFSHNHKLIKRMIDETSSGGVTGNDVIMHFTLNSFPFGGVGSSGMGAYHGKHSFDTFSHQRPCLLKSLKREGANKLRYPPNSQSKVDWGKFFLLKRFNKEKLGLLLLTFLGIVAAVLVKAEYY

[12] = molecular target: proteins of U3A human fibrosarcoma cells (4462 proteins detected) (Homo sapiens, UniProt O94880); settings: protein PHF14; U3A, 10 μM, 2 h
[13] = molecular target: proteins of U3A human fibrosarcoma cells (4462 proteins detected) (Homo sapiens, UniProt P82663); settings: protein MRPS25; U3A cells
[14] = molecular target: proteins of U3A human fibrosarcoma cells (4462 proteins detected) (Homo sapiens, UniProt Q13601); settings: protein KRR1; soluble abundance after heat, U3A cells
[15] = molecular target: proteins of U3A human fibrosarcoma cells (4462 proteins detected) (Homo sapiens, UniProt Q9Y5A9); settings: protein YTHDF2; U3A cells
[16] = molecular target: proteins of U3A human fibrosarcoma cells (4462 proteins detected) (Homo sapiens, UniProt P37837); settings: protein TALDO1, U3A cells
Chain of proteins of U3A human fibrosarcoma cells (4462 proteins detected) (Homo sapiens, UniProt P37837) (P37837 whole entry): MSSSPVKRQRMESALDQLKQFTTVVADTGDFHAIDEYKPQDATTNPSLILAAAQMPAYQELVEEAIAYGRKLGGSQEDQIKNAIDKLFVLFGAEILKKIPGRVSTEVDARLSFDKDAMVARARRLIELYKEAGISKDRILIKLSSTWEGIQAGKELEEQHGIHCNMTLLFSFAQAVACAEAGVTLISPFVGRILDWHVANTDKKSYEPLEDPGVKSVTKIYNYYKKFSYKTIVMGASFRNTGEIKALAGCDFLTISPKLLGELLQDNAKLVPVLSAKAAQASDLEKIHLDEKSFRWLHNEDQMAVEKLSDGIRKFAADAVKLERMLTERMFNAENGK

[17] = molecular target: proteins of U3A human fibrosarcoma cells (4462 proteins detected) (Homo sapiens, UniProt Q9HC36); settings: protein RNMTL1; U3A cells
Chain of proteins of U3A human fibrosarcoma cells (4462 proteins detected) (Homo sapiens, UniProt Q9HC36) (Q9HC36 41-420): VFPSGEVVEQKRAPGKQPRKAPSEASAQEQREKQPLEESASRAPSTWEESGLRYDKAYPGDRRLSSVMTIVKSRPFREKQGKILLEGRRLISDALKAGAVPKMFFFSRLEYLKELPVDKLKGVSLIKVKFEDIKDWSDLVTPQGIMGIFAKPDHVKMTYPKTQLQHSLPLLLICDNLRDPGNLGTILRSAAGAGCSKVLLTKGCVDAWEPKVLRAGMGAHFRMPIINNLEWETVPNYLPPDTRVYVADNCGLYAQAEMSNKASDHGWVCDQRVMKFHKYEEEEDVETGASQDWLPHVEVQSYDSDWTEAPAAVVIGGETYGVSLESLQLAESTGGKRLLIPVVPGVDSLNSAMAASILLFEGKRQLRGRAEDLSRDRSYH

[18] = molecular target: proteins of U3A human fibrosarcoma cells (4462 proteins detected) (Homo sapiens, UniProt Q9UIJ7); settings: protein AK3; U3A cells
[19] = molecular target: proteins of U3A human fibrosarcoma cells (4462 proteins detected) (Homo sapiens, UniProt P57772); settings: protein EEFSEC, U3A cells
Chain of proteins of U3A human fibrosarcoma cells (4462 proteins detected) (Homo sapiens, UniProt P57772) (P57772 whole entry): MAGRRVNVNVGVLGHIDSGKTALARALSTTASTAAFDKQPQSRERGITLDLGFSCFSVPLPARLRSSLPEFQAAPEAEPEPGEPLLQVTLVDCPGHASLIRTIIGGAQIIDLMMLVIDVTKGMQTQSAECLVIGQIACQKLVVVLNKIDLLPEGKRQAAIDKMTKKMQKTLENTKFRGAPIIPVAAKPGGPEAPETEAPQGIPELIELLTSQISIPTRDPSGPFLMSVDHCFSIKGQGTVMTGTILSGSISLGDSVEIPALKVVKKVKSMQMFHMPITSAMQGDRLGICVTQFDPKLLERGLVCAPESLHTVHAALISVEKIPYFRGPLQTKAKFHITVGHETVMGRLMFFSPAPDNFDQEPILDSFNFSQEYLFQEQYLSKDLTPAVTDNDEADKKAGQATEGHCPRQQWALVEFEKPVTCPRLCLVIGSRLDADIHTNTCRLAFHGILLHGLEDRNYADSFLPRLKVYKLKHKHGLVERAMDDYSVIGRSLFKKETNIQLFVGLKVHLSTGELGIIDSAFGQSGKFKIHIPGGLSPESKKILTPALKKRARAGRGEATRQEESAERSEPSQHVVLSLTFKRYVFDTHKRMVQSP

[20] = molecular target: proteins of U3A human fibrosarcoma cells (4462 proteins detected) (Homo sapiens, UniProt Q03188); settings: protein CENPC, U3A cells
Chain of proteins of U3A human fibrosarcoma cells (4462 proteins detected) (Homo sapiens, UniProt Q03188) (Q03188 whole entry): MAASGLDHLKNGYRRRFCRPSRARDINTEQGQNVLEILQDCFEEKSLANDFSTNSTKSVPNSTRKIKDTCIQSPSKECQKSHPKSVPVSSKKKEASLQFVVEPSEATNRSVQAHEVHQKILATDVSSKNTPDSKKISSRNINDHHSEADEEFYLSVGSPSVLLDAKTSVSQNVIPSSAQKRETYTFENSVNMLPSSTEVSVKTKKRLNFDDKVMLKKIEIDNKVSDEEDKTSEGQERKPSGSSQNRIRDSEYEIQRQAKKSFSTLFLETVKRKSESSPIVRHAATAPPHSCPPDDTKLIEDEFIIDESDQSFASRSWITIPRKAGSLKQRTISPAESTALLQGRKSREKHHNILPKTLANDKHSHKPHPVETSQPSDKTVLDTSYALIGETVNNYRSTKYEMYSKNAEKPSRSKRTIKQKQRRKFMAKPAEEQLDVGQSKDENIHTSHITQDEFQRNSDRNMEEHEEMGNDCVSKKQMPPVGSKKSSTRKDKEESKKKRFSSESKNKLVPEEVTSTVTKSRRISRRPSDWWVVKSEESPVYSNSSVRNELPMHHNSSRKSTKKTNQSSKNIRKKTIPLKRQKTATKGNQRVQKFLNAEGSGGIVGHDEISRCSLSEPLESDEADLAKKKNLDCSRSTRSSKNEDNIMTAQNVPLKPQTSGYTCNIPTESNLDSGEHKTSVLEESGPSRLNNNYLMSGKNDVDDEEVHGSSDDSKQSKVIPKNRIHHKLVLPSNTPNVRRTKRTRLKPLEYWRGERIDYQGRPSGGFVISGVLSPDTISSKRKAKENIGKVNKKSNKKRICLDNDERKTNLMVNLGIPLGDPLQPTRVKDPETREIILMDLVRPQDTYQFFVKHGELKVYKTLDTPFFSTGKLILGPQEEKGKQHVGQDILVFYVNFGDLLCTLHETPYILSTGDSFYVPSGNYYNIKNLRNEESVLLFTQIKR

[21] = molecular target: proteins of U3A human fibrosarcoma cells (4462 proteins detected) (Homo sapiens, UniProt Q9HAT2); settings: protein SIAE; U3A, 10 μM, 2 h
[22] = molecular target: proteins of U3A human fibrosarcoma cells (4462 proteins detected) (Homo sapiens, UniProt Q9Y6M5); settings: protein SLC30A1; U3A cells
[23] = molecular target: proteins of U3A human fibrosarcoma cells (4462 proteins detected) (Homo sapiens, UniProt O95104); settings: protein SCAF4; U3A cells
Chain of proteins of U3A human fibrosarcoma cells (4462 proteins detected) (Homo sapiens, UniProt O95104) (O95104 whole entry): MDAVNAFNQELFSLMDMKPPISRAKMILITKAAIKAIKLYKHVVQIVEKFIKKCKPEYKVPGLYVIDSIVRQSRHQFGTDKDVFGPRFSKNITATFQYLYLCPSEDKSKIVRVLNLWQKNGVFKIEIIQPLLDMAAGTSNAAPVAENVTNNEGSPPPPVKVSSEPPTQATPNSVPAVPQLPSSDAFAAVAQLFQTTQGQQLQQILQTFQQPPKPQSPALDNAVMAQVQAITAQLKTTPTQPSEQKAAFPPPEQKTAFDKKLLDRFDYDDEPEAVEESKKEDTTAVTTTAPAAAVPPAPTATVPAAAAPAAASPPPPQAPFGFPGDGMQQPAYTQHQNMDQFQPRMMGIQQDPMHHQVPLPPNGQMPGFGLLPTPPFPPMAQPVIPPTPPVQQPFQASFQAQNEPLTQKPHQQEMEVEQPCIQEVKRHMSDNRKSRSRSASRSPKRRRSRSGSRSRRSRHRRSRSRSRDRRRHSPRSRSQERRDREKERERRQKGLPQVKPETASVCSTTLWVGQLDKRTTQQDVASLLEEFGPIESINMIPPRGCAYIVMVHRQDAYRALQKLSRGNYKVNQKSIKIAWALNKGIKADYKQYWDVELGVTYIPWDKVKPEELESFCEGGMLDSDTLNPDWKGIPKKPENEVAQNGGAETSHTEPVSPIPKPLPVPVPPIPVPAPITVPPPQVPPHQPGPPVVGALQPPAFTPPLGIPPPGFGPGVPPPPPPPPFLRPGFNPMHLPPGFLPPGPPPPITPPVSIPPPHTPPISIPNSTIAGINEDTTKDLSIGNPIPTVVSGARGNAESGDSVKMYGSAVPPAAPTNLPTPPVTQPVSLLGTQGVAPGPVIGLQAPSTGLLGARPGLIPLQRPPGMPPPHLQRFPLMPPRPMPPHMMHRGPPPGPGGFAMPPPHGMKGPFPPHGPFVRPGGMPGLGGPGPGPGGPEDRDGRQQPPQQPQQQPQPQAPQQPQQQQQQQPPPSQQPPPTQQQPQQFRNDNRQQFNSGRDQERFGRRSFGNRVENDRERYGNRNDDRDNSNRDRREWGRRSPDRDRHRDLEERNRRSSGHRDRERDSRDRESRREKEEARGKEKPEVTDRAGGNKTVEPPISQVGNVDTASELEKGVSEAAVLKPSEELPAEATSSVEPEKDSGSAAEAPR

[24] = molecular target: proteins of U3A human fibrosarcoma cells (4462 proteins detected) (Homo sapiens, UniProt Q9NP64); settings: protein ZCCHC17; soluble abundance after heat, U3A cells
[25] = molecular target: proteins of U3A human fibrosarcoma cells (4462 proteins detected) (Homo sapiens, UniProt O95218); settings: protein ZRANB2, U3A cells
Chain of proteins of U3A human fibrosarcoma cells (4462 proteins detected) (Homo sapiens, UniProt O95218) (O95218 whole entry): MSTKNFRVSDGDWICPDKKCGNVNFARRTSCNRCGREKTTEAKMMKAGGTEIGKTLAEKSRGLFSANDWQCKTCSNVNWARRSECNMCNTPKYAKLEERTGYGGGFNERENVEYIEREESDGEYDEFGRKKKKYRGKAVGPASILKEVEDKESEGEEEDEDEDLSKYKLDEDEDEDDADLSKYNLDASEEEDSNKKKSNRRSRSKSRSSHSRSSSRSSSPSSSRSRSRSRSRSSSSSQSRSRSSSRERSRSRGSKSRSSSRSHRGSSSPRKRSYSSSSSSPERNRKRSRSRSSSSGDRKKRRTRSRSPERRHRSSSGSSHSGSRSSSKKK

[26] = molecular target: proteins of U3A human fibrosarcoma cells (4462 proteins detected) (Homo sapiens, UniProt O95197); settings: protein RTN3; U3A cells
[27] = molecular target: proteins of U3A human fibrosarcoma cells (4462 proteins detected) (Homo sapiens, UniProt P61081); settings: protein UBE2M; U3A cells
Chain of proteins of U3A human fibrosarcoma cells (4462 proteins detected) (Homo sapiens, UniProt P61081) (P61081 whole entry): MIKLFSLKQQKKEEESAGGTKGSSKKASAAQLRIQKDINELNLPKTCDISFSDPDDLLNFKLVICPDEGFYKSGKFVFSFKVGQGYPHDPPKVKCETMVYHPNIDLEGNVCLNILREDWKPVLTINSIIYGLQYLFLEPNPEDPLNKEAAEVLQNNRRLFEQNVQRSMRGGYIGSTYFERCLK

[28] = molecular target: proteins of U3A human fibrosarcoma cells (4462 proteins detected) (Homo sapiens, UniProt Q9H944); settings: protein MED20; U3A cells
[29] = molecular target: proteins of U3A human fibrosarcoma cells (4462 proteins detected) (Homo sapiens, UniProt P25325); settings: protein MPST, U3A cells
[30] = molecular target: proteins of U3A human fibrosarcoma cells (4462 proteins detected) (Homo sapiens, UniProt Q12931); settings: protein TRAP1; U3A cells

## CCc1nc(N)nc(N)c1-c1ccc(Cl)cc1 [pyrimethamine]
[1]
  Log2 (PYR/DMSO): 0.16
[2]
  Log2 (PYR/DMSO): 0.18
[3]
  Log2 (PYR/DMSO): 0.15
[4]
  Log2 (PYR/DMSO): 0.14
[5]
  Log2 (PYR/DMSO): 0.14
[6]
  Log2 (PYR/DMSO): -0.03
[7]
  Log2 (PYR/DMSO): 0.16
[8]
  Log2 (PYR/DMSO): 0.16
[9]
  Log2 (PYR/DMSO): 0.18
[10]
  Log2 (PYR/DMSO): 0.16
[11]
  Log2 (PYR/DMSO): 0.16
[12]
  Log2 (PYR/DMSO), PHF14: -0.15
[13]
  Log2 (PYR/DMSO): 0.17
[14]
  Log2 (PYR/DMSO): 0.14
[15]
  Log2 (PYR/DMSO): 0.16
[16]
  Log2 (PYR/DMSO): -0.04
[17]
  Log2 (PYR/DMSO): 0.21
[18]
  Log2 (PYR/DMSO): 0.16
[19]
  Log2 (PYR/DMSO): -0.04
[20]
  Log2 (PYR/DMSO): -0.04
[21]
  Log2 (PYR/DMSO), SIAE: 0.34
[22]
  Log2 (PYR/DMSO): 0.16
[23]
  Log2 (PYR/DMSO): 0.19
[24]
  Log2 (PYR/DMSO): 0.15
[25]
  Log2 (PYR/DMSO): -0.04
[26]
  Log2 (PYR/DMSO): 0.16
[27]
  Log2 (PYR/DMSO): 0.19
[28]
  Log2 (PYR/DMSO): 0.18
[29]
  Log2 (PYR/DMSO): -0.05
[30]
  Log2 (PYR/DMSO): 0.21
